# Measured values published in US11911386B2, “Methods of treating B-cell proliferative disorder” (BeiGene Switzerland GmbH, priority 2022, dated 2024).
# Several values for one entry are separate records, joined by “and”; a condition that tells them apart may be missing. Equal entries are not always repeated. Where two headings read alike, the source gives them in different places. Marks after values point to notes of the source that are not given here.
# What was measured:
# [1] = cited from earlier work
# [2] = multiple doses of a moderate CYP3A inhibitor; cited from earlier work
# [3] = Phase 1 DDI study: treatment-emergent adverse events; format: in vivo, human
# Procedure: Safety was assessed by monitoring and recording of adverse events (AEs), serious adverse events (SAEs), clinical laboratory tests, physical examinations, and vital signs. […] A TEAE was defined as an AE that started during or after the first dose or started before the first dose and increased in severity after the first dose. AEs were classified based on MedDRA Version 24.0.
# Safety and tolerability were assessed, when applicable, by incidence, severity, change from baseline values, and abnormal values for all relevant parameters such as AEs, laboratory parameters, vital signs, and physical examination.
# P-glycoprotein = target: T1, P-glycoprotein (Homo sapiens, UniProt P08183); conditions: repeated dosing of zanubrutinib; cited from earlier work
# T1 construct: endogenous in cells; host or cells: human subjects in vivo (clinical study)
# T1 sequence (P08183 whole entry): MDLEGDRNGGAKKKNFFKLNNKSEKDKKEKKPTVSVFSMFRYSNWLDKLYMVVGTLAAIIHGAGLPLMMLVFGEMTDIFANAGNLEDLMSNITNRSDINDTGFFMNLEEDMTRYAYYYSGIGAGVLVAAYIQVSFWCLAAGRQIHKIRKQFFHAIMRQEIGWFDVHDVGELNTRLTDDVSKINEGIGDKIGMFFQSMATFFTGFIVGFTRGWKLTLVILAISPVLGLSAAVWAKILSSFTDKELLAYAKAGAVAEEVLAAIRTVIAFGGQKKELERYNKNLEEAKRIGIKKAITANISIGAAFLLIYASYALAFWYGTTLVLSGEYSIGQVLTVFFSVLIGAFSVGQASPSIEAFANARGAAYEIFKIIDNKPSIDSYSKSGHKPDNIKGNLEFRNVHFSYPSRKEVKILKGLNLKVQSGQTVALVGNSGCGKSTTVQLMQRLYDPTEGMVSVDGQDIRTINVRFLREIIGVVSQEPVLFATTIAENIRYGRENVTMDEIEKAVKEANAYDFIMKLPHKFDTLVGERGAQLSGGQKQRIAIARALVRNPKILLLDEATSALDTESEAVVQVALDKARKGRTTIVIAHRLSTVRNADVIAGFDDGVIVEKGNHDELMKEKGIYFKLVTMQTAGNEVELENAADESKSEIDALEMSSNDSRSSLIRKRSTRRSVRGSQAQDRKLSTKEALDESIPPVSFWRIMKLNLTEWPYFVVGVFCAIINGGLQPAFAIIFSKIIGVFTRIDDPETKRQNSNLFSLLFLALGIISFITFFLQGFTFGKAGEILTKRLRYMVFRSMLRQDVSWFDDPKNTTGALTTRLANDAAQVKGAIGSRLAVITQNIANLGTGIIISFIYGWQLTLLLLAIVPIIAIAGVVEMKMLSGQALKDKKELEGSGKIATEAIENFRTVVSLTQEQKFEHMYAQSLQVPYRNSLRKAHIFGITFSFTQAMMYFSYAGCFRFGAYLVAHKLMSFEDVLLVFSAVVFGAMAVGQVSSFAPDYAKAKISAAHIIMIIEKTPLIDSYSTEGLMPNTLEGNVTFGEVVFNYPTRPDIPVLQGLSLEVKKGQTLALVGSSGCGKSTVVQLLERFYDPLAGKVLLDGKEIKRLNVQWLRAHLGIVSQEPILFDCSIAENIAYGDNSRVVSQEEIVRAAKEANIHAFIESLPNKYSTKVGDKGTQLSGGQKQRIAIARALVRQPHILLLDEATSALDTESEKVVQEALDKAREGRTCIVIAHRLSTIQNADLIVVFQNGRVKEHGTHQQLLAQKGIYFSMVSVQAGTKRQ
# [4] = tested on: relapsed/refractory CLL/SLL; conditions: for Duration of response events: death / Duration of response events: progressive disease / Duration of response: events: responders
# [5] = Phase 2 (NCT04116437): recurrence and change in severity of ibrutinib/acalabrutinib intolerance events on zanubrutinib; format: in vivo, human
# Excerpt: The primary endpoints were the recurrence and the change in severity of ibrutinib and acalabrutinib intolerance events compared with corresponding treatment-emergent adverse events within each patient. In this document, the term “adverse event” refers to a “treatment-emergent adverse event” unless otherwise stated. Hereafter, the full “treatment-emergent adverse event” was not used.
# Intolerance was defined as an unacceptable toxicity such that treatment should be discontinued per investigator opinion despite optimal supportive care.
# If while on zanubrutinib a patient experienced the same adverse event that led to their intolerance to ibrutinib, the patient was said to experience a recurrence of an ibrutinib intolerant event. […] Otherwise, the severity was said to be the same. For acalabrutinib intolerant events, recurrence and change in severity were defined similarly.
# Primary endpoint was the recurrence and change in severity of intolerance events per protocol.
# The study design comprised two cohorts. […] Patients were not allowed to switch schedule during the study.
# [6] = coadministration with itraconazole
# [7] = IRC assessed, ITT, Table 15 data cut-off
# [8] = IRC assessed, ITT, final analysis
# [9] = IRC assessed, del(17p)/TP53 mutation, final analysis
# [10] = investigator assessed, ITT, Table 15 data cut-off
# [11] = investigator assessed, ITT, final analysis
# [12] = investigator assessed, del(17p)/TP53 mutation, final analysis
structure (smiles),measurement,setting,value
"C=CC(=O)N1CCC([C@@H]2CCNc3c(C(N)=O)c(-c4ccc(Oc5ccccc5)cc4)nn32)CC1 [zanubrutinib, (S)-7-(1-acryloylpiperidin-4-yl)-2-(4-phenoxyphenyl)-4,5,6,7-tetrahydropyrazolo[1,5-a]pyrimidine-3-carboxamide]",Increase in zanubrutinib AUC0-∞,[1]; [6],3.8 fold
same,Increase in zanubrutinib Cmax,[1]; [6],2.6 fold
same,Decrease in zanubrutinib AUC0-∞,[1]; coadministration with rifampin,13.5 fold
same,Decrease in zanubrutinib Cmax,[1]; coadministration with rifampin,12.6 fold
same,Exposure change,[1]; coadministration with rifampin,13 fold
same,Increase in zanubrutinib Cmax and AUC,[2],2- to 3 fold and 2 to 3 fold
same,General disorders and administration site conditions TEAE,[3]; N = 13,1 (7.7) n (%)
same,Overall TEAEs,[3]; N = 13,1 (7.7) n (%)
same,Vessel puncture site hematoma TEAE,[3]; N = 13,1 (7.7) n (%)
same,Tolerability,"[3]; single 320 mg dose alone or with 300 mg rifabutin, healthy volunteers",well tolerated
same,Mean increase of digoxin AUC0-t,P-glycoprotein,11%
same,Mean increase of digoxin Cmax,P-glycoprotein,34%
same,"24-month event-free rate, duration of response (95% CI)",[4]; IRC assessed,77.4 (71.0-82.5) %
same,Median duration of response (95% CI),[4]; IRC assessed,had not yet been reached
same,Best response CR or CRi,[4]; [7],13 (4.0) n (%)
same,Best response PD,[4]; [7],3 (0.9) n (%)
same,Best response PR or nPR,[4]; [7],250 (76.5) n (%)
same,Best response PR-L,[4]; [7],33 (10.1) n (%)
same,Best response SD,[4]; [7],20 (6.1) n (%)
same,"Discontinue prior to first assessment, NA or NE",[4]; [7],8 (2.4) n (%)
same,ORR (95% CI),[4]; [7],"80.4† (75.7, 84.6) %"
same,Best response CR or CRi,[4]; [8],22 (6.7) n (%)
same,Best response PD,[4]; [8],3 (0.9) n (%)
same,Best response PR or nPR,[4]; [8],260 (79.5) n (%)
same,Best response PR-L,[4]; [8],18 (5.5) n (%)
same,Best response SD,[4]; [8],16 (4.9) n (%)
same,"Discontinue prior to first assessment, NA or NE",[4]; [8],8 (2.4) n (%)
same,ORR,[4]; [8],86.2%
same,Best response CR or CRi,[4]; [9],6 (8.0) n (%)
same,Best response PD,[4]; [9],1 (1.3) n (%)
same,Best response PR or nPR,[4]; [9],58 (77.3) n (%)
same,Best response PR-L,[4]; [9],4 (5.3) n (%)
same,Best response SD,[4]; [9],3 (4.0) n (%)
same,"Discontinue prior to first assessment, NA or NE",[4]; [9],3 (4.0) n (%)
same,ORR,[4]; [9],85.3%
same,Median duration of response (95% CI),"[4]; IRC assessed, listed as Zanubrutinib","NE (31.3, NE)"
same,Duration of response events: death,[4]; IRC assessed,20 (7.1) n (%)
same,Duration of response events: progressive disease,[4]; IRC assessed,40 (14.2) n (%)
same,Duration of response: events,[4]; IRC assessed,60 (21.3) n (%)
same,Treatment discontinuation due to progressive disease,[4]; ITT,7.3%
same,"PFS HR (95% CI), zanubrutinib over ibrutinib","[4]; accounting for drug interruption (ITT), independent review","0.71 (0.53, 0.95)"
same,"PFS HR (95% CI), zanubrutinib over ibrutinib","[4]; accounting for drug interruption (ITT), investigator assessment","0.71 (0.52, 0.96)"
same,"PFS HR (95% CI), zanubrutinib over ibrutinib","[4]; alternative censoring rules (ITT), independent review","0.63 (0.48, 0.84)"
same,"PFS HR (95% CI), zanubrutinib over ibrutinib","[4]; alternative censoring rules (ITT), investigator assessment","0.65 (0.49, 0.87)"
same,Deaths,[4]; final analysis data cut-off,48 n
same,"PFS HR (95% CI), zanubrutinib over ibrutinib",[4]; in vivo,"0.62 (0.46, 0.84) and 0.62 (0.45, 0.84)"
same,Treatment-failure event-free rate at 24 months,[4]; in vivo,79.9%
same,"24-month event-free rate, duration of response (95% CI)",[4]; investigator assessed,79.5 (73.1-84.6) %
same,Median PFS,[4]; investigator assessed,not reached
same,Median duration of response (95% CI),[4]; investigator assessed,had not yet been reached
same,PFS rate at 24 months,[4]; investigator assessed,78.4%
same,Patients with disease progression or death,[4]; investigator assessed,87 patients
same,Rate of partial response with lymphocytosis or better,"[4]; investigator assessed, ITT",89.9%
same,Best response CR or CRi,[4]; [10],16 (4.9) n (%)
same,Best response PD,[4]; [10],1 (0.3) n (%)
same,Best response PR or nPR,[4]; [10],244 (74.6) n (%)
same,Best response PR-L,[4]; [10],32 (9.8) n (%)
same,Best response SD,[4]; [10],25 (7.6) n (%)
same,"Discontinue prior to first assessment, NA or NE",[4]; [10],9 (2.8) n (%)
same,ORR (95% CI),[4]; [10],"79.5* (74.7, 83.8) %"
same,Best response CR or CRi,[4]; [11],23 (7.0) n (%)
same,Best response PD,[4]; [11],1 (0.3) n (%)
same,Best response PR or nPR,[4]; [11],250 (76.5) n (%)
same,Best response PR-L,[4]; [11],21 (6.4) n (%)
same,Best response SD,[4]; [11],23 (7.0) n (%)
same,"Discontinue prior to first assessment, NA or NE",[4]; [11],9 (2.8) n (%)
same,ORR,[4]; [11],83.5%
same,Best response CR or CRi,[4]; [12],5 (6.7) n (%)
same,Best response PD,[4]; [12],0 n (%)
same,Best response PR or nPR,[4]; [12],56 (74.7) n (%)
same,Best response PR-L,[4]; [12],6 (8.0) n (%)
same,Best response SD,[4]; [12],5 (6.7) n (%)
same,"Discontinue prior to first assessment, NA or NE",[4]; [12],3 (4.0) n (%)
same,ORR,[4]; [12],81.3%
same,Median duration of response (95% CI),"[4]; investigator assessed, listed as Zanubrutinib","NE (31.3, NE)"
same,Duration of response events: death,[4]; investigator assessed,20 (7.3) n (%)
same,Duration of response events: progressive disease,[4]; investigator assessed,33 (12.1) n (%)
same,Duration of response: events,[4]; investigator assessed,53 (19.4) n (%)
same,PD detected by decrease in platelet count,"[4]; investigator assessment, ITT",0
same,PD detected by increase in lymph nodes,"[4]; investigator assessment, ITT",40 (12.2)
same,PD detected by new enlarged lymph nodes,"[4]; investigator assessment, ITT",3 (0.9)
same,PD detected by new or increase in splenomegaly,"[4]; investigator assessment, ITT",8 (2.4)
same,PD detected by new symptomatic disease,"[4]; investigator assessment, ITT",3 (0.9)
same,Patients with disease transformation,"[4]; investigator assessment, ITT",5 (1.5)
same,Patients with progressive disease,"[4]; investigator assessment, ITT",54 (16.5)
same,"PFS HR (95% CI), zanubrutinib over ibrutinib","[4]; per protocol population (N = 646), independent review","0.64 (0.48, 0.85)"
same,"PFS HR (95% CI), zanubrutinib over ibrutinib","[4]; per protocol population (N = 646), investigator assessment","0.64 (0.48, 0.85)"
same,Patients with acalabrutinib-intolerance event recurrence who discontinued zanubrutinib,[5]; 3 patients,66.7%
same,Recurring acalabrutinib-intolerance events at lower severity,[5]; 3 recurring events,33.3% and 33.0%
same,Recurring acalabrutinib-intolerance events at same severity,[5]; 3 recurring events,66.6% and 66.7%
same,Grade 3 acalabrutinib-intolerance events that recurred,[5]; 4 grade 3 events,25.0%
same,Patients without recurrence of acalabrutinib-intolerance events,[5]; 10 patients,70.0%
same,Recurring grade 3 ibrutinib-intolerance events at lower severity,[5]; 13 events,92.3%
same,Recurring grade 3 ibrutinib-intolerance events at same severity,[5]; 13 events,7.7%
same,Acalabrutinib-intolerance events that did not recur,[5]; 18 events,83.3%
same,Acalabrutinib-intolerance events that recurred: arthralgia,[5]; 18 events,5.6%
same,Acalabrutinib-intolerance events that recurred: myalgia,[5]; 18 events,11.1%
same,Patients with recurrent ibrutinib-intolerance event who discontinued zanubrutinib,[5]; 25 patients,24.0%
same,Recurring ibrutinib-intolerance events at lower severity,[5]; 34 recurring events,79.4%
same,Recurring ibrutinib-intolerance events at same severity,[5]; 34 recurring events,20.6%
same,Grade 3 ibrutinib-intolerance events that recurred,[5]; 38 grade 3 events,34.2%
same,Patients without recurrence of ibrutinib-intolerance event,[5]; 62 patients,59.7%
same,Ibrutinib-intolerance events that did not recur,[5]; 115 events,70.4%
same,Intolerance events that did not recur,[5]; 141 intolerance events,68.1%
same,Patients with reoccurrence of previously intolerant adverse event(s),[5]; all patients,44.4%
same,Patients without any recurrence of intolerance event(s),[5]; all patients (clinical study report cut-off),56.6%
same,Median time to first recurrence of ibrutinib-intolerance event,[5]; in vivo,61 days
